The target of the first experiment is T1, purified human HDAC6 (Homo sapiens, UniProt Q9UBN7).
T1 construct: purchased BPS Bioscience 5006
T1 sequence (Q9UBN7 1-1215): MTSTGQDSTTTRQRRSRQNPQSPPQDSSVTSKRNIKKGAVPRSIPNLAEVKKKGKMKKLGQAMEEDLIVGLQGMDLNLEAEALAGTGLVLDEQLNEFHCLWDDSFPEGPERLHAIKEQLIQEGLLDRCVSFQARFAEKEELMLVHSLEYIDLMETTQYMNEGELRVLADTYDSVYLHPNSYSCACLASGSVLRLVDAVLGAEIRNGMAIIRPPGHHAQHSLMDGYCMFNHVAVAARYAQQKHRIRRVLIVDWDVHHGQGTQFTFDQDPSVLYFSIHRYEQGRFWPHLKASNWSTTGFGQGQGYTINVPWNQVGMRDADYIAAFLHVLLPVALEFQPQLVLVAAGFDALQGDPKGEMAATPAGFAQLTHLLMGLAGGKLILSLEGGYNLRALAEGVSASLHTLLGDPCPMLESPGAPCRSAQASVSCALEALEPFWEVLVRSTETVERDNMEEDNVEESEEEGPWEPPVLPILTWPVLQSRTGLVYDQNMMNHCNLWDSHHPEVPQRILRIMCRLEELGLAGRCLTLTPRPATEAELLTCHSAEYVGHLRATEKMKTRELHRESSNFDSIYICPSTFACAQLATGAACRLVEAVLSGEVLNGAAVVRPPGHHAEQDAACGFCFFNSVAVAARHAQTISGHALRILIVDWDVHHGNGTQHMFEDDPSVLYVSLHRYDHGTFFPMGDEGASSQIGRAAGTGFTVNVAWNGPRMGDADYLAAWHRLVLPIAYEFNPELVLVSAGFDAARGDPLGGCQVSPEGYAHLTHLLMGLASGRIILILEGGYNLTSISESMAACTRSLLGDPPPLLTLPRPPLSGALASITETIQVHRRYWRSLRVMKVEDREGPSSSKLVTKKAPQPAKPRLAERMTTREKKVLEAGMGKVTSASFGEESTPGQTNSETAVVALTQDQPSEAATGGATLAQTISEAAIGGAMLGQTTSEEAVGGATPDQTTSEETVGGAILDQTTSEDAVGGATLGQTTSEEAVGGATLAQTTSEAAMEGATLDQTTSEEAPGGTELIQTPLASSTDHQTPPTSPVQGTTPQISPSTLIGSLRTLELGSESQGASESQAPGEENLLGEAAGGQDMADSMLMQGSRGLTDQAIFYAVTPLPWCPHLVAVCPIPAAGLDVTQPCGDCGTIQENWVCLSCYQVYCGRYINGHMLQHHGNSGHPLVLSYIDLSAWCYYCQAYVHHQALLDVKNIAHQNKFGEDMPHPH
In words: HDAC6 Enzyme Assay. The format is biochemical. To be noted: bin: greater than 500 nM and less than 1 μM (lower bound in nM, upper bound in μM). A digest of the protocol: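 Deacetylated product quantified after trypsin digestion as released AMC (340/460 nm), following a 1 h, 30 °C reaction of human HDAC6 with Ac-RGK(Ac)-AMC peptide, quenched by trichostatin A. IC50 derived from DMSO-normalized curves.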
The molecule `Cn1c(C(=O)N[C@@H](c2ccc(C(=O)NO)cc2)C(F)(F)F)cc(Cl)c1Cl` [Compound I-108, 4,5-dichloro-1-methyl-N-((1S)-2,2,2-trifluoro-1-{4-[(hydroxyamino)carbonyl]phenyl}ethyl)-1H-pyrrole-2-carboxamide] had a half-maximal inhibitory concentration (IC50) of 500 to 1000 nM.

Still in this experiment, the particulars now being: bin: greater than 1 μM.
Molecule `Cc1cc(C(=O)NC(C)c2cccc(C(=O)NO)c2)c(C)o1` (stereo not shown) [Compound I-104, N-(1-{3-[(hydroxyamino)carbonyl]phenyl}ethyl)-2,5-dimethyl-3-furamide] returned an IC50 of over 1000 nM.

Consider `CC(C)CC(=O)NC(C)c1ccc(C(=O)NO)cc1` (stereo not shown) [Compound I-111, N-hydroxy-4-{1-[(3-methylbutanoyl)amino]ethyl}benzamide], for which the IC50 is over 1000 nM.

The same experiment, now with this note: purified human HDAC6, substrate Ac-Arg-Gly-Lys(Ac)-AMC, 1 hour at 30° C.; reported as bins.
In turn, `O=C(N[C@H](c1ccc(C(=O)NO)cc1)C(F)(F)F)NC12CC3CC(CC(C3)C1)C2` [Compound I-105, 4-((1R)-1-{[(1-adamantylamino)carbonyl]amino}-2,2,2-trifluoroethyl)-N-hydroxybenzamide] had an IC50 of 100 to 500 nM. For `CCC[C@@H](NC(=O)c1cc2ccccc2n1C)c1ccc(C(=O)NO)cc1` [Compound I-106, N-((1R)-1-{4-[(hydroxyamino)carbonyl]phenyl}butyl)-1-methyl-1H-indole-2-carboxamide], the IC50 was under 100 nM.

Take `Cn1cc(C(=O)NC(c2ccc(C(=O)NO)cc2)C(C)(C)C)c2ccccc21` (stereo not shown) [Compound I-107, N-(1-{4-[(hydroxyamino)carbonyl]phenyl}-2,2-dimethylpropyl)-1-methyl-1H-indole-3-carboxamide]: the 50% inhibitory concentration (IC50) is under 100 nM. `CC(NC(=O)c1cc(-c2ccccc2)n[nH]1)c1ccc(C(=O)NO)cc1` (stereo not shown) [Compound I-109, N-(1-{4-[(hydroxyamino)carbonyl]phenyl}ethyl)-3-phenyl-1H-pyrazole-5-carboxamide] showed a half-inhibitory concentration (IC50) of under 100 nM. Turning to `CC(NC(=O)C1(c2ccc(Cl)cc2)CCC1)c1ccc(C(=O)NO)cc1` (stereo not shown) [Compound I-110, 4-[1-({[1-(4-chlorophenyl)cyclobutyl]carbonyl}amino)ethyl]-N-hydroxybenzamide], the concentration for half-maximal inhibition (IC50) was under 100 nM. With `CC(C)C(NC(=O)c1cccs1)c1ccc(C(=O)NO)cc1` (stereo not shown) [Compound I-112, N-(1-{4-[(hydroxyamino)carbonyl]phenyl}-2-methylpropyl)thiophene-2-carboxamide], the half-inhibitory concentration (IC50) was under 100 nM. Take `Cc1c(C(=O)N[C@H](C)c2cccc(C(=O)NO)c2)sc2ccccc12` [Compound I-113, N-((1R)-1-{3-[(hydroxyamino)carbonyl]phenyl}ethyl)-3-methyl-1-benzothiophene-2-carboxamide]: the IC50 was 100 to 500 nM.

In turn, `CC(NC(=O)c1c2c(nn1C)CCCC2)c1ccc(C(=O)NO)cc1` (stereo not shown) [Compound I-114, N-(1-{4-[(hydroxyamino)carbonyl]phenyl}ethyl)-2-methyl-4,5,6,7-tetrahydro-2H-indazole-3-carboxamide] showed an IC50 of 100 to 500 nM. Take `C[C@@H](NC(=O)c1cc2ccccc2n1C)c1ccc(C(=O)NO)cc1` [Compound I-115, N-((1R)-1-{4-[(hydroxyamino)carbonyl]phenyl}ethyl)-1-methyl-1H-indole-2-carboxamide]: the IC50 is under 100 nM. `CC(C)C(NC(=O)c1cc(F)c(F)cc1F)c1ccc(C(=O)NO)cc1` (stereo not shown) [Compound I-116, 2,4,5-trifluoro-N-(1-{4-[(hydroxyamino)carbonyl]phenyl}-2-methylpropyl)benzamide] showed an IC50 of under 100 nM. `CC(NC(=O)c1csc2ccccc12)c1cccc(C(=O)NO)c1` (stereo not shown) [Compound I-117, N-(1-{3-[(hydroxyamino)carbonyl]phenyl}ethyl)-1-benzothiophene-3-carboxamide] displayed an IC50 of 100 to 500 nM. On the same count and under the same terms, to `Cc1ccc(NC(=O)NC(C)c2ccc(C(=O)NO)cc2)cc1F` (stereo not shown) [Compound I-120, 4-[1-({[(3-fluoro-4-methylphenyl)amino]carbonyl}amino)ethyl]-N-hydroxybenzamide] belongs under 100 nM. On the same count and under the same terms, the value for `C[C@@H](NC(=O)c1ccc(-c2ccccc2)cc1)c1cccc(C(=O)NO)c1` [Compound I-121, N-((1R)-1-{3-[(hydroxyamino)carbonyl]phenyl}ethyl)biphenyl-4-carboxamide] was 100 to 500 nM; that for `COc1ccc(C(=O)N[C@@H](c2ccc(C(=O)NO)cc2)C(F)(F)F)cc1` [Compound I-122, 4-methoxy-N-((1S)-2,2,2-trifluoro-1-{4-[(hydroxyamino)carbonyl]phenyl}ethyl)benzamide] was under 100 nM; that for `CC(C)(C)C(NC(=O)c1cscn1)c1ccc(C(=O)NO)cc1` (stereo not shown) [Compound I-123, N-(1-{4-[(hydroxyamino)carbonyl]phenyl}-2,2-dimethylpropyl)-1,3-thiazole-4-carboxamide] was 100 to 500 nM. On to `O=C(NO)c1ccc([C@@H](NC(=O)c2cc3ccccc3s2)c2ccccc2)cc1` [Compound I-124, N-[(S)-{4-[(hydroxyamino)carbonyl]phenyl}(phenyl)methyl]-1-benzothiophene-2-carboxamide], for which the IC50 is under 100 nM. Molecule `CC(NC(=O)c1cn2ccccc2n1)c1ccc(C(=O)NO)cc1` (stereo not shown) [Compound I-125, N-(1-{4-[(hydroxyamino)carbonyl]phenyl}ethyl)imidazo[1,2-a]pyridine-2-carboxamide] registered a concentration for half-maximal inhibition (IC50) of under 100 nM.

Molecule `CC(C)[C@@H](NC(=O)C1(C)CCCCC1)c1ccc(C(=O)NO)cc1` [Compound I-126, N-hydroxy-4-((1R)-2-methyl-1-{[(1-methylcyclohexyl)carbonyl]amino}propyl)benzamide] had an IC50 of 100 to 500 nM.

Consider `CC(C)(C)C(NC(=O)c1cc2ccccc2[nH]1)c1ccc(C(=O)NO)cc1` (stereo not shown) [Compound I-127, N-(1-{4-[(hydroxyamino)carbonyl]phenyl}-2,2-dimethylpropyl)-1H-indole-2-carboxamide], for which the IC50 is under 100 nM. For `CC(NC(=O)c1ccc2ccccc2n1)c1ccc(C(=O)NO)cc1` (stereo not shown) [Compound I-128, N-(1-{4-[(hydroxyamino)carbonyl]phenyl}ethyl)quinoline-2-carboxamide], the half-maximal inhibitory concentration (IC50) was under 100 nM. Consider `Cc1ccc2[nH]c(C(=O)NC(c3ccc(C(=O)NO)cc3)C(C)(C)C)cc2c1` (stereo not shown) [Compound I-129, N-(1-{4-[(hydroxyamino)carbonyl]phenyl}-2,2-dimethylpropyl)-5-methyl-1H-indole-2-carboxamide], for which the IC50 is under 100 nM.

`CC(C)C(NC(=O)c1cc2cc(Cl)ccc2o1)c1ccc(C(=O)NO)cc1` (stereo not shown) [Compound I-130, 5-chloro-N-(1-{4-[(hydroxyamino)carbonyl]phenyl}-2-methylpropyl)-1-benzofuran-2-carboxamide]: the concentration for half-maximal inhibition (IC50) was under 100 nM. The same measure, in the same setting: the value for `CC(NC(=O)C1(C)CCCCC1)c1ccc(C(=O)NO)cc1` (stereo not shown) [Compound I-132, N-hydroxy-4-(1-{[(1-methylcyclohexyl)carbonyl]amino}ethyl)benzamide] was under 100 nM. As for `Cn1cccc1C(=O)NC(c1ccc(C(=O)NO)cc1)C(C)(C)C` (stereo not shown) [Compound I-133, N-(1-{4-[(hydroxyamino)carbonyl]phenyl}-2,2-dimethylpropyl)-1-methyl-1H-pyrrole-2-carboxamide], the IC50 was in the range of 100 to 500 nM.

Molecule `CC(NC(=O)c1cccc2c1OCC2)c1ccc(C(=O)NO)cc1` (stereo not shown) [Compound I-134, N-(1-{4-[(hydroxyamino)carbonyl]phenyl}ethyl)-2,3-dihydro-1-benzofuran-7-carboxamide] yielded an IC50 of under 100 nM.

A word on the IC50: it is the concentration needed to halve the response being measured. Read a low IC50 as higher potency.

These data come from patent US9382197B2, “Substituted hydroxamic acids and uses thereof” (Millennium Pharmaceuticals, Inc., priority 2010, dated 2016).
